In patent publication US12201628B2, “Neuronal modulation” (priority 2013, dated 2025):
Entries after “also recorded” stand apart in the source; their conditions may differ.

What was measured:
[1] = test system: DREADDs (hM3D(Gq)) expressing VTA dopaminergic neurons; experiment: C-fos staining of VTA neurons after CNO injection; type: in vivo, mice; conditions: CNO 2.5 mg/kg, 90 min after injection
Experimental: Mice were anesthetized using a ketamine/xylazine mixture (ketamine 80 mg/kg; xylazine 15-20 mg/kg) diluted in sterile saline solution (NaCl 0.9%), before being fixed in the stereotactic frame (Stoelting, IL, US). The AAV8 virus, purchased from the vector core at the University of North Carolina, was used to induce Cre-dependent DREADD expression (AAV8-hSyn-DIO-hM3D(Gq)-mCherry), by injection of 0.7 μl into the right VTA region (anterior-posterior −3.2 mm; media-lateral 0.48 mm; dorsal-ventral 4.7 mm (mouse coordinates)). […] 30 days post surgery passed in order to assure the expression of DREADDs. […]
Validation of the virus injection site and evaluation of the DREADDs expression were performed by immunohistochemistry. […] The tissues were stained for TH with mouse anti-TH (1:200; Millipore) and the proportion of the DREADDs expressing cells (mCherry+) out of the total TH+ in the VTA was evaluated (1800 cells). […] The proportion of the c-fos+ cell nuclei from the total number of DREADDs-expressing cells was calculated. […] The quantification of double-positive cells was performed using Imaris Software.
Efficiency of the viral infection in the dopaminergic (TH+) VTA neurons was 58±4% (FIG. 6B). […] Neuronal activation was determined by C-fos staining, an immediate early activation marker. […]

VTA dopaminergic neurons = experiment: Conditional place preference (CPP) paradigm; type: in vivo, mice; conditions: CNO 2.5 mg/kg
Experimental: All behavioral tests were conducted during the same circadian period. The conditional place preference (CPP) test was performed in a rectangular cage with two chambers (25 cm×25 cm each), with a corridor (5 cm×5 cm) connecting the two chambers. The chambers differed in their visual cues and were designed so that mice will have no bias for a particular chamber. The CPP paradigm consisted of four sessions over four days and was conducted 30 days after the viral stereotactic injection. On day 1, individual mice were placed in the connecting corridor (in the same direction) and allowed to freely explore the entire apparatus for 15 minutes (pre-test). On day 2, mice were IP injected with CNO (2.5 mg/kg, Sigma-Aldrich) diluted in sterile saline in order to activate the VTA dopaminergic neurons and then the mice were confined to one of the chambers for 30 min. On day 3, mice were confined to the other chamber for 30 min, 10 min after an injection of sterile saline. On day 4, mice were placed in the center chamber and allowed to freely explore the entire apparatus for 15 minutes (post-test). To calculate the level of preference, the relative time (%) the mouse spent during post-test in the conditioned chamber (the chamber where it received the CNO injection) was divided by the relative time (%) the mouse spent in this chamber during the pre-test (post/pre ratio). Of note, mice in both groups were injected with CNO to control for the potential effects of CNO. The analysis was performed automatically using EthoVision software.
Behavioral analysis (conditioned place preference; CPP): Three groups of mice were used in this experiment: mice injected with AAV virus encoding the hM3D (Gq), hM4D (Gi) or control carrying only mCherry. On day 1 the mice were given a chance to explore the apparatus for 5 minutes. […] At this stage the mice were only allowed access to one compartment of the apparatus and remains in the compartment for 30 minutes. Day 3: Mice were confounded to the other compartment. […] Time spent in each compartment was measured by motion detecting software (EthoVision). […]

E. coli = experiment: In-vitro E. coli killing assay with spleen monocytes/macrophages; type: cell-based, mice; conditions: monocytes/macrophages from spleens 24 h after CNO; VTA-activated vs control; intact SNS
Experimental: To evaluate the anti-bacterial efficiency of the spleen monocytes, an in-vitro killing assay was performed. Splenocytes from VTA-activated and control mice were extracted 24 hour after IP injection of CNO. Splenocytes underwent a monocyte enrichment negative selection procedure using the EasySep mouse monocyte enrichment kit (Stem-Cells Technologies, Vancouver, Canada). Enriched monocytes co-cultured with E. coli bacteria at a 12:1 ratio, in RPMI medium containing 10% foetal bovine serum, and incubated at 37° C. for 4 h. Monocytes were then lysed by adding 0.1% Triton X-100 (Sigma-Aldrich, US), and the lysates were diluted ×1000 in PBS. The diluted media were plated onto agar petri dishes, which were then incubated overnight at 37° C. Twelve hours later, the number of remaining bacteria colonies was counted.
To test for functional changes in immune activity following VTA activation, monocytes/macrophages were assayed (the most profound changes in the CyTOF screen). Due to the increase in CD206 levels on these cells, their phagocytic capacity was examined. Cd11b+, Ly6G-cells were isolated from the spleens of both VTA-activated and control mice 24 h following CNO injection. Cells were cultured with E. coli for four hours and then lysed.
The remaining media was plated on agar plates and counted the remaining bacteria colonies. […]

[2] = mice; cited from earlier work

## C[N+]1([O-])CCN(C2=Nc3cc(Cl)ccc3Nc3ccccc32)CC1 [CNO, clozapine-N-oxide]
[1]; VTA-activated (hM3D(Gq)) mice
  C-fos expression in DREADDs-infected cells: 42±0.5%
[1]; control mice (sham mCherry virus without DREADDs)
  C-fos expression in virus infected cells: 3±1%
VTA dopaminergic neurons; Gi (hM4D) mice
  preference for conditioned chamber (CPP): avoided the conditioned chamber
VTA dopaminergic neurons; Gq (hM3D, VTA-activated) mice
  preference for conditioned chamber (CPP): exhibited a preference for the conditioned chamber; also recorded: increased preference to the conditioned chamber; also recorded: strong preference towards the chamber in which they were injected with CNO
VTA dopaminergic neurons; control mice (mCherry only virus)
  preference for conditioned chamber (CPP): no such bias; also recorded: did not show a clear preference to any single chamber
E. coli
  number of remaining E. coli colonies: significant decrease
[2]
  conversion of CNO to clozapine: does not convert to clozapine
